{"source": "patent US20220193029A1", "about": "“BRYOSTATIN COMPOUNDS FOR ENHANCEMENT OF IMMUNOTHERAPY” (priority 2019, published 2022)", "tested_on": "CD22 surface expression in 2F7 cells", "assay": "CD22 surface expression assay, AIDS-NHL cell line 2F7", "settings": "1 nM or 10 nM, 48 hours", "procedure": "AIDS-NHL cell lines were incubated in IF10 medium, consisting of IMDM medium (Life technologies) containing 10% fetal bovine serum (FBS, Omega Scientific), 100 units/mL of penicillin, and 100 μg/ml of streptomycin (Invitrogen). Cells were incubated at 37° C. in 5% CO2.\nCells were exposed to compound for the either 24 or 48 h before staining and flow cytometric analysis of receptor levels.\nCells in each well were washed with phosphate buffered saline (PBS) containing 2% FBS, then cells were centrifuged for 9 min at 233 xg and resuspended in 50 μL of a 1:1 dilution of phosphate buffered saline (PBS): Human AB serum (Sigma). […] Stained samples were stored at 4° C. Flow cytometry samples were analyzed using a FACSCelesta (BD Biosciences) flow cytometer and data were analyzed using FlowJo software (version 10).\nPanel C: JB cells were incubated with 1 nM (left hand bars) or 10 nM (right hand bars) of compound for 48 hours. CD22 surface expression was then assayed by flow cytometry (n=6 biological replicates; data presented as mean values ±SE). Panel D: 2F7 cells were incubated with 1 nM (left hand bars) or 10 nM (right hand bars) of compound for 48 hours. CD22 surface expression was then assayed by flow cytometry (n=6 biological replicates; data presented as mean values ±SE)."}
{"compound": "C=CCOC(=O)/C=C1/C[C@H]2C[C@]3(O)O[C@H](C[C@@H](O)CC(=O)O[C@@H]([C@@H](C)O)C[C@@H]4C/C(=C\\C(=O)OC)[C@H](OC(=O)/C=C/C=C/CCC)[C@@](O)(O4)C(C)(C)/C=C/[C@@H](C1)O2)C[C@H](OC(C)=O)C3(C)C", "note": "[SUW229]", "values": [{"measurement": "upregulated CD22 surface expression", "result": "~2", "unit": "fold"}]}
